Like-named read-outs stand apart in the source and are kept apart here.
How the values were obtained:
[1] = target: T1, Cyclin Dependent Kinase 1/Cyclin A2 (CDK1-cycA2) (Homo sapiens, UniProt P06493); assay: CDK1-cycA2 TR-FRET (Lance) enzyme assay; type: biochemical; details: for Ki: enzymatic assay
T1 construct: purchased ProQinase 0134-0054-1
Procedure, shortened: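 TR-FRET (Lance) detection of phospho-4E-BP1 with a europium-labelled antibody after EDTA quench (15 mM final); signal taken as acceptor/donor ratio. Enzyme and compound were pre-incubated 30 min in HEPES pH 7.5 buffer with MgCl2, TCEP, BGG and Brij 35. Ki derived by Morrison fit.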

[2] = target: T2, Cyclin Dependent Kinase 2/Cyclin E1 (CDK2-cycE1) (Homo sapiens, UniProt P24941); assay: CDK2-cycE1 TR-FRET (LANCE) enzyme assay; type: biochemical; details: for FS CDK1/CDK2 / FS CDK4/CDK2: fold selectivity; for FS CDK1/CDK2: enzymatic CDK1 Ki over CDK2 Ki; for FS CDK4/CDK2: enzymatic CDK4 Ki over CDK2 Ki
T2 construct: purchased ProQinase 0050-0055-1
Procedure, shortened: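 Kinase reaction buffer: 50 mM HEPES pH 7.5, 10 mM MgCl2, 2 mM TCEP, 0.05% BGG, 0.01% Brij 35, with 30 min compound–enzyme pre-incubation.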

[3] = target: T3, Cyclin Dependent Kinase 4/Cyclin D3 (CDK4-cycD3) (Homo sapiens, UniProt P11802); assay: CDK4-cycD3 TR-FRET (LANCE) enzyme assay; type: biochemical; details: for Ki: enzymatic assay
T3 construct: purchased Carna Biosciences 04-105
T3 sequence (P11802 whole entry): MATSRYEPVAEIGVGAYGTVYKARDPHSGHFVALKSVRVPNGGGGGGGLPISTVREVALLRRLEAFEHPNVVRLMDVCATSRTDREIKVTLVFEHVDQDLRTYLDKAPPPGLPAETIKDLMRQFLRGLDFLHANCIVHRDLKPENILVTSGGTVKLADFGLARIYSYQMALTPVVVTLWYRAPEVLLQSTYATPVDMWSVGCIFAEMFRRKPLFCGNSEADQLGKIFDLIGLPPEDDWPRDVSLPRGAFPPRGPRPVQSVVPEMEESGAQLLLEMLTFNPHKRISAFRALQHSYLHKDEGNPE
T3 sequence (P30281 whole entry partner): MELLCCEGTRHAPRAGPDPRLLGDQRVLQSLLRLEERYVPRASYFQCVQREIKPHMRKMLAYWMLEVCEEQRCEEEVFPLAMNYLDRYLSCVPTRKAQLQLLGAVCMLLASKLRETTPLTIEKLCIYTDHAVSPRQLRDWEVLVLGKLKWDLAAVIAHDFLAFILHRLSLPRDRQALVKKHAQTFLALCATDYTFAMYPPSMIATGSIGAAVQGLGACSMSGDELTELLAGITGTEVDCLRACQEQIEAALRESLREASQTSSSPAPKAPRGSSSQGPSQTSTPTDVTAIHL
Procedure, shortened: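 Compound dose responses pre-incubated 30 min with enzyme mix in 50 mM HEPES pH 7.5, 10 mM MgCl2, 2 mM TCEP, 0.05% BGG, 0.01% Brij 35. Reaction quenched with EDTA (15 mM final); Eu-anti-phospho-4E-BP1 TR-FRET detection, acceptor/donor ratio. Ki derived by Morrison equation.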

[4] = system: OVISE (JCRB1043, CCNE1-amplified); assay: OVISE EdU incorporation cell proliferation assay (CDK2-dependent); type: cell-based; details: for IC50: cellular assay, read-out: CDK2 OVISE IC50; for FS SKOV-3/OVISE / FS p-H3/OVISE: fold selectivity; for FS SKOV-3/OVISE: cellular SKOV-3 IC50 over OVISE IC50; for FS p-H3/OVISE: cellular p-H3 IC50 over OVISE IC50
Procedure, shortened: (§1)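 EdU incorporation (0.5 μM final, last 8 h) follows a 16 h compound exposure at 37 °C, 5% CO2 in RPMI plus 10% FBS, 0.5% DMSO. After fixation, imaging scores EdU-positive cells; a 4-parameter logistic fit of that fraction gives IC50.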

SKOV-3 (ATCC HTB-77) = assay: SKOV-3 EdU incorporation cell proliferation assay (CDK4/6-dependent); type: cell-based; details: for IC50: Homo sapiens, cellular assay, read-out: CDK4/6 SKOV-3 IC50
Procedure, shortened: as §1

HCT116 cells = assay: p-H3 HCT-116 mitotic release cell proliferation assay (cellular CDK1); type: cell-based; details: for IC50: Homo sapiens, HCT-116, cellular assay, read-out: CDK1 p-H3 IC50
Protocol: Inhibition of cellular CDK1 determined by release of cells from nocodazole-induced mitotic arrest, as measured by decrease in phospho-Histone H3. Histone H3 (Ser 10) level is detected in cell lysates by producing a Fluorescence Resonance Energy Transfer (FRET) signal between two antibodies, Phospho-Histone H3 Cryptate (acting as the donor) and Phospho-Histone H3 d2 (acting as the acceptor).
Plates are allowed to rest overnight at 37° C./5% CO2. The following morning, nocodazole is diluted in complete medium, and 5 μL is added to each test well and positive control well for a final concentration of 500 nM. Plates are then incubated for 16 hours at 37° C./5% CO2. […] 10 μL of diluted compound is then transferred to the cell plate (final DMSO concentration 0.1%). Cell plates are then incubated for 4 hours in 37° C. 5% CO2. A cell lysis buffer is prepared on ice using reagents from the Phospho-Histone H3 (Ser10) cellular kit (Cisbio-64HH3PEG). Supernatant is discarded from the cell plate and 80 μL of the supplemented cell lysis buffer (1:99 dilution of the Blocking Reagent and the 1× cell lysis buffer provided in the kit) is added to each of the experimental wells. The cell lysis reaction is allowed to proceed at room temperature while shaking vigorously for 30 minutes. The 384-well HTRF (Homogeneous Time Resolved Fluorescence) plate is prepared by adding 2 μL of each diluted antibody (Phospho-Histone H3 Cryptate antibody and Phospho-Histone H3 d2 antibody diluted 19:1 in a detection buffer) and 12 μL of the supplemented cell lysis buffer to each well in the HTRF plate. 4 μL of the cell lysate is added to the prepared HTRF plate which is then sealed and the reaction is allowed to proceed for a minimum of 2 hours at room temperature.

[5] = fold selectivity, enzymatic Ki ratio, Table P
[6] = read-out: CDK2 activity / potency (enzymatic assay)
[7] = Table O, enzymatic assay, read-out: CDK2 Ki

T1 sequence (P06493 whole entry): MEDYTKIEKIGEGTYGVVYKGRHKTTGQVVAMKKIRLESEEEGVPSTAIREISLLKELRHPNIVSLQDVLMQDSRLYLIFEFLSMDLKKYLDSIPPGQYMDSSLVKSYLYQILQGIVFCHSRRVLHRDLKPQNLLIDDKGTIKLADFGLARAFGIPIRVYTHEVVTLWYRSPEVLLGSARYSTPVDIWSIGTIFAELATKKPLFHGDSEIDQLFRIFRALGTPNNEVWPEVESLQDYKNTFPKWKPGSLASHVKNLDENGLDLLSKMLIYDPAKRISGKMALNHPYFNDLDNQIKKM
T1 sequence (P20248 whole entry partner): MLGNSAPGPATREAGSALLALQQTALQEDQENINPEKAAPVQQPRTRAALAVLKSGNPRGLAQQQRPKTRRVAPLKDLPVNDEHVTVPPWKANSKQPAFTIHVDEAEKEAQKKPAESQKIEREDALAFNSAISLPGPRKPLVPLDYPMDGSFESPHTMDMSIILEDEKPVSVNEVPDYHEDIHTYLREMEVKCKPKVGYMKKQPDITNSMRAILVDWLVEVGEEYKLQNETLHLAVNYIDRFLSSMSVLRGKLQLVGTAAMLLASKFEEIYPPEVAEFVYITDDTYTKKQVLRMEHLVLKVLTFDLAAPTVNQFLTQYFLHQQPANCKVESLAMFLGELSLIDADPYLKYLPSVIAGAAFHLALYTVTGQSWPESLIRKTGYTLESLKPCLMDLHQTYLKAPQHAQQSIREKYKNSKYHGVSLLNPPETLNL

SMILES	Ki [2, 6] [nM]	Ki ([1]; Table O) [nM]	Ki [2, 7] [nM]	FS CDK1/CDK2 ([2]; Table O)	FS CDK4/CDK2 ([2]; Table O)	Ki ([3]; Table O) [nM]	IC50 ([4]; Table O) [nM]	FS SKOV-3/OVISE ([4]; Table O)	FS p-H3/OVISE ([4]; Table O)	IC50 (SKOV-3 (ATCC HTB-77); SK-OV-3, Table O) [nM]	IC50 (HCT116 cells; Table O) [nM]	also measured
CC(C)(C)NC(=O)O[C@@H]1CC[C@H](c2cc(NC(=O)c3ccnnc3)n[nH]2)C1 [Comparator B, reference compound]	1	–	–	–	–	–	–	–	–	–	–	Ki ([1]; Table P): 32 nM; FS CDK1/CDK2 [1, 5]: 32; Ki ([3]; Table P): 250 nM; FS CDK4/CDK2 [3, 5]: 250; IC50 ([4]; Table P): 140 nM; IC50 (SKOV-3 (ATCC HTB-77); SK-OV-3, Table P): 6700 nM; FS SKOV-3/OVISE (SKOV-3 (ATCC HTB-77); fold selectivity, cellular IC50 ratio (CDK4/6 over CDK2), Table P): 48; pH3/OVISE fold selectivity (CDK1 over CDK2, cellular assay data) (HCT116 cells): 0.31 fold; IC50 (HCT116 cells; Table P): 43 nM; FS p-H3/OVISE (HCT116 cells; fold selectivity, cellular IC50 ratio (CDK1 over CDK2), Table P): 0.31
CC1(NC(=O)O[C@@H]2CC[C@H](c3cc(Nc4cccnn4)n[nH]3)C2)CC1 [Example 3A, (1R,3S)-3-(3-(pyridazin-3-ylamino)-1H-pyrazol-5-yl)cyclopentyl (1-methylcyclopropyl)carbamate]	–	72	2.5	29	60	150	130	21	1.2	2700	160	–
Cc1nc(C(=O)N(C)C)ccc1Nc1cc([C@H]2CC[C@@H](OC(=O)NC3(C)CC3)C2)[nH]n1 [Example 7, (1R,3S)-3-(3-((6-(dimethylcarbamoyl)-2-methylpyridin-3-yl)amino)-1H-pyrazol-5-yl)cyclopentyl (1-methylcyclopropyl)carbamate]	≤ 1	23	0.36	64	110	38	58	66	0.86	3800	50	–

Reference: patent publication US20240425478A1, “CYCLOPENTYLPYRAZOLE CDK2 INHIBITORS” (Genentech, Inc., priority 2021, published 2024)
